Test results published in patent US3970651A, “Crystalline cephalosporin derivative” (priority 1974, dated 1976).
≈ marks a conversion by molar mass, not a printed value. Where “and” joins values, the source holds several entries; their conditions need not be identical. Equal entries are not always repeated. Where two headings read alike, the source gives them in different places.

Key:
[1] = tested on: S. aureus 209P (A.T.C.C. 6538P); assay: Bioassay, turbidometric; type: cell-based
[2] = for Behaviour when suspended in water: aqueous suspension
[3] = tested on: bacterial infections; assay: In vitro antibacterial potency and spectrum; type: cell-based
[4] = tested on: bacterial infections; assay: In vivo antibacterial activity
[5] = in vivo; details: dog, po, 30 mg/kg
Protocol: Three beagle dogs (mean weight of 8.2 ± 0.4 kg.) were administered 200 mesh 7-[D-α-amino-α-(p-hydroxyphenyl)acetamido]-3-(1,2,3-triazol-5-ylthiomethyl)-3-cephem-4-carboxylic acid propylene glycolate (bioassay 820 mcg./mgm.) orally at doses of 30 mg. of activity/kg. in hard gelatin capsules. All doses and concentrations reported herein are in terms of the amphoteric material and were corrected for differences in biopotency.

[6] = Water solubility; type: physicochemical; details: in water at 23° C.
[7] = Heat stability / loss of bioactivity of the solid on storage at elevated temperatures
[8] = allowance made for inert propylene glycol

CO.N[C@@H](C(=O)NC1C(=O)N2C(C(=O)O)=C(CSc3cnn[nH]3)CS[C@H]12)c1ccc(O)cc1 (stereo partly drawn) [BL-S640 methanolate, 7-[D-α-amino-α-(p-hydroxyphenyl)acetamido]-3-(1,2,3-triazol-5-ylthiomethyl)-3-cephem-4-carboxylic acid Methanolate]
Bio-assay [1]: 850 to 900 µg/mg

N[C@@H](C(=O)NC1C(=O)N2C(C(=O)O)=C(CSc3c[nH]nn3)CSC12)c1ccc(O)cc1 (stereo partly drawn) [BL-S640 mono-methanolate]
Bio-assay [1]: 930-960 units/mg.

C=CC.N[C@@H](C(=O)NC1C(=O)N2C(C(=O)O)=C(CSc3cnn[nH]3)CS[C@H]12)c1ccc(O)cc1.O=C(O)CO (stereo partly drawn) [BL-S640 mono-propylene glycolate, 7-[D-α-amino-α-(p-hydroxyphenyl)acetamido]-3-(1,2,3-triazol-5-ylthiomethyl)-3-cephem-4-carboxylic acid mono-propylene glycolate]
Bio-assay [1]: 865 µg/mg | calculated potency ([1]; 15.6% 1,2-propylene glycol, 0.3% water): 865 µg/mg | Behaviour when suspended in water [2]: does not lose biological activity or crystallinity and does not oil, suspend unevenly, clump, settle out or become tacky | Potency and spectrum in vivo and in vitro versus the zwitterion product [3, 8]: substantially the same potency and spectrum in vivo and in vitro | Potency and spectrum in vivo versus the zwitterion product [4, 8]: substantially the same potency and spectrum in vivo and in vitro

N[C@@H](C(=O)NC1C(=O)N2C(C(=O)O)=C(CSc3c[nH]nn3)CSC12)c1ccc(O)cc1 (stereo partly drawn) [BL-S640 propylene glycolate, 7-[D-α-amino-α-(p-hydroxyphenyl)acetamido]-3-(1,2,3-triazol-5-ylthiomethyl)-3-cephem-4-carboxylic acid 1,2-propylene glycolate]
concentration at 0.08 h [5]: 0.04 µg/mL | concentration at 0.25 h [5]: 0.3 ± 0.1 µg/mL | concentration at 0.5 h [5]: 5.9 ± 2 µg/mL | concentration at 1.05 h [5]: 8.4 µg/mL | concentration at 1.5 h [5]: 17.7 ± 2 µg/mL | concentration at 2 h [5]: 18.7 ± 0.9 µg/mL | concentration at 3 h [5]: 13.7 ± 1.2 µg/mL | concentration at 4 h [5]: 8.4 ± 1.3 µg/mL | concentration at 6 h [5]: 3.2 ± 0.4 µg/mL | concentration at 8 h [5]: 1.6 ± 0.2 µg/mL | half-life [5]: ~1.36 h | bioassay ([1]; 200 mesh lot dosed to dogs): 820 mcg./mgm. | assigned potency ([1]; bioassay standard, 16.7% 1,2-propylene glycol, 0.3% water): 820 mcg./mgm. | potency of composite blend ([1]; capsule blend): 834 µg/mg | Bio-assay ([1]; listed as 1,2-propylene glycolate): 800 to 850 µg/mg | Bio-assay ([1]; listed as propylene glycolate): 750 to 790 µg/mg and 800 to 860 µg/mg | solubility [6]: ~10 mg/mL (≈ 21.6 mM) | Behaviour when suspended in water ([2]; listed as propylene glycolate): does not lose biological activity, lose crystallinity, suspend unevenly, oil, clump, settle out or become tacky | In vitro potency and spectrum of activity ([3]; in vitro, versus Ser. No. 318,340): exhibits the potency and spectrum of activity reported in the above-referenced application Ser. No. 318,340 in a qualitative sense and usually also quantitatively except when it is possible to observe slightly less activity due to its content of the biologically inert propylene glycol | Loss of bioactivity on storage as a solid ([7]; 56°C., one month, usual stringent test conditions): no more than ten | degraded at 24 h ([7]; solid): < 6% | degraded at 48 h ([7]; solid): < 12% | degraded at 720 h ([7]; solid): < 10% | In vivo results ([4]; dosed on a potency basis in terms of the zwitterion): substantially the same

N[C@@H](C(=O)NC1C(=O)N2C(C(=O)O)=C(CSc3cnn[nH]3)CS[C@H]12)c1ccc(O)cc1 (stereo partly drawn) [BL-S640, 7-[D-α-amino-α-(p-hydroxyphenyl)acetamido]-3-(1,2,3-triazol-5-ylthiomethyl)-3-cephem-4-carboxylic acid]
Degradation in water at alkaline pH ([2]; pH 7): degrades very rapidly, as by loss of the thiol moiety

N[C@@H](C(=O)NC1C(=O)N2C(C(=O)O)=C(CSc3c[nH]nn3)CSC12)c1ccc(O)cc1 (stereo partly drawn) [ethanolate]
Behaviour when suspended in water [2]: gradually lost its ethanol to change into a solid tacky form which lost crystallinity, did not suspend evenly and gummed in time
